According to patent US9351971B2, “Substituted 2,2′-biphenazines for treating diseases” (Eutropics Pharmaceuticals, Inc., priority 2010, dated 2016):

Biological target: T1, Mcl-1 (Homo sapiens, UniProt Q07820)
T1 construct: made in house; host or cells: E. coli
Experiment: Fluorescence polarization assay, Bim BH3 peptide binding to GST-Mcl-1
From the text: A nineteen amino acid peptide, corresponding to the BH3 domain of Bim, with the sequence FITC-GGGIAQELRRIGDEFNAY (SEQ ID NO: 1) was labeled with the tluorophore FITC according to the manufacturer's instructions (Molecular Probes, Eugene, Oreg.). This sequence was identified as being able to bind to purified Bcl-xL protein (Sattler et al. (1997) Science 275(5302): 983-86) and to have biological activity in cells (Holinger et al. J. Biol. Chem. 274; 13298-1330).
In addition, recombinant GST -Mcl-1 and GST-Bcl-xL fusion proteins were generated in E.coli and purified using glutathione-sepharose beads using conventional techniques known to those skilled in the fields of biochemistry and molecular biology, (methods for preparation are described in Strategies for Protein Purification and Characterization, Marshak, D, Kadonga, J, Burgess R, Knuth, M, Brennan, W, Sue-Hwa, L, CSH press, Cold Spring Harbor, N.Y.). Binding of the recombinant proteins to the fluorescent Bim BH3 domain was confirmed by titration of increasing concentrations of the recombinant proteins against a constant amount of labeled Bim peptide (16.65 nM). Quantitation of binding was accomplished by FP assay with mP measurements made on the Analyst-GT reader (Molecular Devices, Sunnyvale, Calif.).
Further, the ability of compound A to disrupt the interaction between the fluorescent Bim BH3 peptide and the two fusion proteins was assessed using a fluorescence polarization assay. The Bim peptide (in solution at 4 nano-Molar) and either GST-Mcl-1 (in solution at 12.5 nM) or GST-Bcl-xL (in solution at 11.8 nM) were first combined together in phosphate buttered saline buffer, and then the compound solution in DMSO was added to final concentrations ranging from 10 μM to 0.1 nM). Normally the unbound Bim polypeptide results in polarization of 5 mP units. Upon binding of the GST-Bcl-xL and GST-Mcl-1 fusion protein, polarization increased to 100 mP units.
(§1) Experiments are performed using the fluorescence polarization assay as described in Example 2. Either Bcl-xL or Mcl-1 fusion proteins were titrated and maximum mp shift indicate binding concentrations for drug titration studies, as described in Example 2. Compound II-19, was titrated from 10 μM to 0.1 nM in 2 fold serial dilution into the peptide/protein solution. The IC50 for blocking each BH3 peptide from Mcl-1 are assessed using FP, as described in Example 2.
as §1, with “Either GST-Bcl-xL” for “Either Bcl-xL”, “or GST-Mcl-1” for “or Mcl-1”, “Compound II-20,” for “Compound II-19,”, “in 2-fold” for “in 2 fold”

T1 sequence (Q07820 whole entry): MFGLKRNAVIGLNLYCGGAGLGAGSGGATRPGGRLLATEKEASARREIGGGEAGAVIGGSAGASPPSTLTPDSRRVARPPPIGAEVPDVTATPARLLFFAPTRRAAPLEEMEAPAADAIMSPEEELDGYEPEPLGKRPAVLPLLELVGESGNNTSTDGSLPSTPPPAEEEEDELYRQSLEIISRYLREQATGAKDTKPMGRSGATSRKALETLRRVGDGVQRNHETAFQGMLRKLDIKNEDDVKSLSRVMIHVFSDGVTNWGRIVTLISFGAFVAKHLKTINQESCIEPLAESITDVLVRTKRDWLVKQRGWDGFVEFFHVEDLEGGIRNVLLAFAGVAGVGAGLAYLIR

IC50 (fluorescence polarization, Bim-BH3-FITC peptide, GST-Mcl-1, read-out: IC50, inhibition of Bim-BH3 peptide binding to Mcl-1): 7 nM
preference for inhibition of Mcl-1 vs. Bcl-xL (ratio of FP IC50 values): 2 fold
SMILES: COC(=O)c1ccc(O)c2nc3c(C=O)c(O)c(-c4c(O)c(C=O)c5nc6c(O)ccc(C(=O)OC)c6nc5c4O)c(O)c3nc12 [II-19, dimethyl 4,4′-diformyl-1,1′,3,3′,6,6′-hexahydroxy-[2,2′-biphenazine]-9,9′-dicarboxylate]
